# Columns and labels:
# Type in all cases: in vivo
# wheat variety Ritmo [1] = assay: Plot trial: chlorophyll content of leaves (pigment extraction method of Ziegler and Ehle)
# [2] = system: infection-free wheat plants of the cultivar Passat; assay: Glasshouse trial: temperature of ears and leaves as measure of transpiration activity
# Outline: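 Wheat grown in 10-litre containers for 4 months under controlled glasshouse conditions, in earth/C-horizon/sand (4:2:1) substrate, fed 0.2% liquid fertilizer every two weeks and watered as needed. Bixafen effects were assessed with 10 repetitions per trial component.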
# [3] = system: infection-free wheat plants of the cultivar Passat; assay: Glasshouse trial: size of the flag leaf
# Outline: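 Infection-free wheat grown 4 months in 10-litre containers in a glasshouse, 10 repetitions, pests and mildew controlled. Test products sprayed sequentially at BBCH 39 and 59 in 300 l water/ha; flag leaf length and width measured.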
# wheat variety Ritmo [4] = assay: Plot trial in Germany: green leaf area by visual scoring; conditions: for green leaf area of the flag leaf / green leaf area of the second-from-top leaf (F-1) / green leaf area of the third-from-top leaf (F-2): sprays at BBCH 39 and 59
# Outline: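 Field plot trial in Germany, wheat variety Ritmo, bixafen products sprayed sequentially at BBCH 39 and 59 at 400 l water/ha, 5 repetitions. Green leaf area duration followed by regular visual scoring of green leaf fraction.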
# [5] = system: infection-free wheat plants of the cultivar Passat; assay: Glasshouse trial: yield components
# wheat variety Ritmo [6] = assay: Plot trial: yield components; conditions: sprays at BBCH 39 and 59
# wheat = assay: Effect on the number of kernels/ear; conditions: 1st. trial
# [7] = system: infection-free wheat plants of the cultivar Passat; assay: Glasshouse trial: green leaf area by visual scoring; conditions: for green leaf area of the flag leaf (F) / green leaf area of the second-from-top leaf (F-1) / green leaf area of the third-from-top leaf (F-2): glasshouse
# Outline: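 Infection-free wheat grown 4 months under controlled glasshouse conditions in 10-litre containers, 10 repetitions per trial component. Products applied as sequential sprays at BBCH 39 and 59 in 300 l water/ha. Duration of green leaf area scored visually at regular intervals.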
# [8] = glasshouse trial, statement in words
# [9] = 7 days after second fungicide application
# [10] = 14 days after second fungicide application
# [11] = 21 days after second fungicide application
# [12] = 28 days after second fungicide application
# [13] = 35 days after second fungicide application
# [14] = 42 days after second fungicide application
# [15] = glasshouse, sprays at BBCH 39 and 59
# [16] = 68 days after second fungicide application (so in the source)
# [17] = 75 days after second fungicide application (so in the source)
# [18] = 82 days after second fungicide application (so in the source)
# [19] = 89 days after second fungicide application (so in the source)
# [20] = 96 days after second fungicide application (so in the source)
# [21] = 103 days after second fungicide application (so in the source)
# [22] = 110 days after second fungicide application (so in the source)
# [23] = 117 days after second fungicide application (so in the source)
smiles,measurement,setting,value
"Cn1cc(C(=O)Nc2ccc(F)cc2-c2ccc(Cl)c(Cl)c2)c(C(F)F)n1 [Bixafen, N-(3′,4′-dichloro-5-fluoro-1,1′-biphenyl-2-yl)-3-(difluoromethyl)-1-methyl-1H-pyrazole-4-carboxamide]",Chlorophyll content,"wheat variety Ritmo [1]; BBCH 75 (mature milk), leaf F",1763 µg/g
same,Chlorophyll content,"wheat variety Ritmo [1]; BBCH 75 (mature milk), leaf F-1",1693 µg/g
same,Chlorophyll content,"wheat variety Ritmo [1]; BBCH 75 (mature milk), leaf F-2",1243 µg/g
same,Chlorophyll content,"wheat variety Ritmo [1]; BBCH 85 (mature dough), leaf F",738 µg/g
same,Chlorophyll content,"wheat variety Ritmo [1]; BBCH 85 (mature dough), leaf F-1",631 µg/g
same,Chlorophyll content,"wheat variety Ritmo [1]; BBCH 85 (mature dough), leaf F-2",404 µg/g
same,chlorophyll content and breakdown of chlorophyll,"wheat variety Ritmo [1]; alone or in combination with other active fungicidal ingredients, statement in words",the chlorophyll content overall is higher and the breakdown of chlorophyll is slower
same,Temperature (as a measure of the transpiration activity),"[2]; BBCH 75, ear",22.3 °C
same,Temperature (as a measure of the transpiration activity),"[2]; BBCH 75, leaf",22.1 °C
same,Temperature (as a measure of the transpiration activity),"[2]; BBCH 80, ear",18.2 °C
same,Temperature (as a measure of the transpiration activity),"[2]; BBCH 80, leaf",16.4 °C
same,Temperature (as a measure of the transpiration activity),"[2]; BBCH 85, ear",24.5 °C
same,Temperature (as a measure of the transpiration activity),"[2]; BBCH 85, leaf",23.3 °C
same,Temperature (as a measure of the transpiration activity),"[2]; BBCH 90, ear",24.1 °C
same,Temperature (as a measure of the transpiration activity),"[2]; BBCH 90, lear (so in the source)",22.3 °C
same,Length of the flag leaf,[3]; at BBCH 83-85,28.1 cm
same,Width of the flag leaf,[3]; at BBCH 83-85,1.7 cm
same,Area of the flag leaf,"[3]; at BBCH 83-85, calculated using the formula A = 0.67 × length × width",32.01 cm^2
same,Area [rel.] of the flag leaf,"[3]; at BBCH 83-85, untreated = 100",146 rel.
same,size (length and width) of the flag leaf compared with the other comparison fungicides,[3]; [8],greatest
same,green leaf area of the flag leaf,wheat variety Ritmo [4]; [9],98.9 % leaf area
same,green leaf area of the second-from-top leaf (F-1),wheat variety Ritmo [4]; [9],98.4 % leaf area
same,green leaf area of the third-from-top leaf (F-2),wheat variety Ritmo [4]; [9],96.4 % leaf area
same,green leaf area of the flag leaf,wheat variety Ritmo [4]; [10],98.7 % leaf area
same,green leaf area of the second-from-top leaf (F-1),wheat variety Ritmo [4]; [10],98.3 % leaf area
same,green leaf area of the third-from-top leaf (F-2),wheat variety Ritmo [4]; [10],96.3 % leaf area
same,green leaf area of the flag leaf,wheat variety Ritmo [4]; [11],98.8 % leaf area
same,green leaf area of the second-from-top leaf (F-1),wheat variety Ritmo [4]; [11],98.5 % leaf area
same,green leaf area of the third-from-top leaf (F-2),wheat variety Ritmo [4]; [11],94.5 % leaf area
same,green leaf area of the flag leaf,wheat variety Ritmo [4]; [12],96.7 % leaf area
same,green leaf area of the second-from-top leaf (F-1),wheat variety Ritmo [4]; [12],94.8 % leaf area
same,green leaf area of the third-from-top leaf (F-2),wheat variety Ritmo [4]; [12],91.8 % leaf area
same,green leaf area of the flag leaf,wheat variety Ritmo [4]; [13],73.0 % leaf area
same,green leaf area of the second-from-top leaf (F-1),wheat variety Ritmo [4]; [13],60.0 % leaf area
same,green leaf area of the third-from-top leaf (F-2),wheat variety Ritmo [4]; [13],37.5 % leaf area
same,green leaf area of the flag leaf,wheat variety Ritmo [4]; [14],26.7 % leaf area
same,green leaf area of the second-from-top leaf (F-1),wheat variety Ritmo [4]; [14],9.2 % leaf area
same,green leaf area of the third-from-top leaf (F-2),wheat variety Ritmo [4]; [14],3.4 % leaf area
same,green leaf area of the second-from-top leaf (F-1),wheat variety Ritmo [4]; 49 days after second fungicide application,0 % leaf area
same,effect on the duration of the green leaf area of the wheat plant,"wheat variety Ritmo [4]; plot trial, statement in words",pronounced effect
same,yield components compared with the other comparison fungicides,[5]; [8],"a higher yield, a higher number of kernel/ear, a higher thousand-kernel mass and a lower straw fraction than the other comparison fungicides"
same,Ears/pot,[5]; [15],40.0
same,Harvest Index,[5]; [15],29.8%
same,Kernels/ear,[5]; [15],25.1
same,Straw,[5]; [15],88.5 g/pot
same,TKM (thousand-kernel mass),[5]; [15],37.5 g
same,Yield,[5]; [15],37.5 g/pot
same,Ears/m^2,wheat variety Ritmo [6],417
same,Harvest Index,wheat variety Ritmo [6],58.5
same,Straw,wheat variety Ritmo [6],590 g m^−2
same,TKM (thousand-kernel mass),wheat variety Ritmo [6],47.7 g
same,Yield,wheat variety Ritmo [6],8.5 t ha^−1
same,Kernels/ear,"wheat; applied at BBCH 33 + 59, twice 125 g a.i.",41.7
same,Kernels/ear,wheat; applied at BBCH 39 (bixafen 125 g a.i.; bixafen + prothioconazole 75 + 150 g a.i.),42.6
same,green leaf area of the flag leaf (F),[7]; [16],100 % leaf area
same,green leaf area of the second-from-top leaf (F-1),[7]; [16],100 % leaf area
same,green leaf area of the third-from-top leaf (F-2),[7]; [16],100 % leaf area
same,green leaf area of the flag leaf (F),[7]; [17],100 % leaf area
same,green leaf area of the second-from-top leaf (F-1),[7]; [17],100 % leaf area
same,green leaf area of the third-from-top leaf (F-2),[7]; [17],95 % leaf area
same,green leaf area of the flag leaf (F),[7]; [18],100 % leaf area
same,green leaf area of the second-from-top leaf (F-1),[7]; [18],95 % leaf area
same,green leaf area of the third-from-top leaf (F-2),[7]; [18],80 % leaf area
same,green leaf area of the flag leaf (F),[7]; [19],95 % leaf area
same,green leaf area of the second-from-top leaf (F-1),[7]; [19],85 % leaf area
same,green leaf area of the third-from-top leaf (F-2),[7]; [19],52 % leaf area
same,green leaf area of the flag leaf (F),[7]; [20],88 % leaf area
same,green leaf area of the second-from-top leaf (F-1),[7]; [20],57 % leaf area
same,green leaf area of the third-from-top leaf (F-2),[7]; [20],29 % leaf area
same,green leaf area of the flag leaf (F),[7]; [21],65 % leaf area
same,green leaf area of the second-from-top leaf (F-1),[7]; [21],33 % leaf area
same,green leaf area of the third-from-top leaf (F-2),[7]; [21],15 % leaf area
same,green leaf area of the flag leaf (F),[7]; [22],38 % leaf area
same,green leaf area of the second-from-top leaf (F-1),[7]; [22],20 % leaf area
same,green leaf area of the third-from-top leaf (F-2),[7]; [22],6 % leaf area
same,green leaf area of the flag leaf (F),[7]; [23],15 % leaf area
same,green leaf area of the second-from-top leaf (F-1),[7]; [23],5 % leaf area
same,green leaf area of the third-from-top leaf (F-2),[7]; [23],0 % leaf area
same,effect on the duration of the green leaf area of the wheat plant,[7]; [8],pronounced effect

# Source: US20110196000A1, “Use of succinate dehydrogenase (SDH) inhibitors in the treatment of plant species from the family of the true grasses” (Bayer CropScience AG, priority 2010, published 2011)
